Values of other authors, collected in patent US11793177B2, “Animal model of Angelman Syndrome” (UNIVERSITY OF SOUTH FLORIDA, priority 2016, dated 2023).

System: GR
Details: treatment in adulthood; rodent

CC(/C=C/C(=O)NO)=C\[C@@H](C)C(=O)c1ccc(N(C)C)cc1 [TSA]
GR levels in the hippocampus: increased
repressive histone and methylation marks in the hippocampus: reversed
